Test results reported in ChEMBL document CHEMBL5614426 (J Med Chem, 2024).

Legend:
[1] = target: T1, Histone-lysine N-methyltransferase EHMT2 (Homo sapiens) (UniProt Q96KQ7); test: Inhibition of G9a (unknown origin) at 10 uM by AlphaLISA assay relative to control
T1 sequence (whole entry): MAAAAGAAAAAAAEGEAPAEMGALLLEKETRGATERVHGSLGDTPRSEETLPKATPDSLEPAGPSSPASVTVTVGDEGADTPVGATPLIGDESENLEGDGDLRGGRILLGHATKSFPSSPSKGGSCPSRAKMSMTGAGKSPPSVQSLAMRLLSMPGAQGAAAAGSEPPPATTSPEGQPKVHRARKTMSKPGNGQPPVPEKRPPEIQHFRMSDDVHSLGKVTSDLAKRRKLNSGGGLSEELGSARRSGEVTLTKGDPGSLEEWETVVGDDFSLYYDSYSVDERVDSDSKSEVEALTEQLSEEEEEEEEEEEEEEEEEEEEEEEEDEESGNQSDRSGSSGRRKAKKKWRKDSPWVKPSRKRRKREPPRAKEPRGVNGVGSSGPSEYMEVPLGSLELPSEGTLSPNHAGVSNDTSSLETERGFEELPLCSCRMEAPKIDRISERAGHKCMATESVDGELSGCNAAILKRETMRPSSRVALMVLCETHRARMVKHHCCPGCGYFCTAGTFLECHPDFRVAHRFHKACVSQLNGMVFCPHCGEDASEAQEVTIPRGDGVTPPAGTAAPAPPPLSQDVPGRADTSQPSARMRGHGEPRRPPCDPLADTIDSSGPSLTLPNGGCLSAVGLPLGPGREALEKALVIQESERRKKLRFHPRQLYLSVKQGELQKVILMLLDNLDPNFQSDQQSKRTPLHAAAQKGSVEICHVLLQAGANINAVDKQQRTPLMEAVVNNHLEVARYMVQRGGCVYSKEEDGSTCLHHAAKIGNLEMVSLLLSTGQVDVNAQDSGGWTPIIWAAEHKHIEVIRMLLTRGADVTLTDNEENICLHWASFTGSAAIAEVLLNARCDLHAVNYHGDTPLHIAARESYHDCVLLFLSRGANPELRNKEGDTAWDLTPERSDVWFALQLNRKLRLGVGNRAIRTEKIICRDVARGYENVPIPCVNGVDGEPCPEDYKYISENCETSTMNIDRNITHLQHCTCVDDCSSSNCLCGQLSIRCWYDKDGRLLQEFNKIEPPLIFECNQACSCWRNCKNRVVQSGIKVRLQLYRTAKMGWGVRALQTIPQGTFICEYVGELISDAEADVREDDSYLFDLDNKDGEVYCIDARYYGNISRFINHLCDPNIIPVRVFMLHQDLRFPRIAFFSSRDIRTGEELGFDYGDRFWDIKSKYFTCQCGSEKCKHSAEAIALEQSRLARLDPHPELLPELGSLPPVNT

[2] = target: T1, Histone-lysine N-methyltransferase EHMT2 (Homo sapiens); test: Inhibition of G9a (unknown origin) at 1 uM by AlphaLISA assay relative to control
[3] = target: T2, Histone-lysine N-methyltransferase NSD2 (Homo sapiens, UniProt O96028); test: Inhibition of recombinant human NSD2 (941 to 1240 residues) using unmethylated histone H3 as substrate incubated for 40 mins in the presence of SAM and nucleosomes by AlphaLISA method
T2 sequence (O96028 whole entry): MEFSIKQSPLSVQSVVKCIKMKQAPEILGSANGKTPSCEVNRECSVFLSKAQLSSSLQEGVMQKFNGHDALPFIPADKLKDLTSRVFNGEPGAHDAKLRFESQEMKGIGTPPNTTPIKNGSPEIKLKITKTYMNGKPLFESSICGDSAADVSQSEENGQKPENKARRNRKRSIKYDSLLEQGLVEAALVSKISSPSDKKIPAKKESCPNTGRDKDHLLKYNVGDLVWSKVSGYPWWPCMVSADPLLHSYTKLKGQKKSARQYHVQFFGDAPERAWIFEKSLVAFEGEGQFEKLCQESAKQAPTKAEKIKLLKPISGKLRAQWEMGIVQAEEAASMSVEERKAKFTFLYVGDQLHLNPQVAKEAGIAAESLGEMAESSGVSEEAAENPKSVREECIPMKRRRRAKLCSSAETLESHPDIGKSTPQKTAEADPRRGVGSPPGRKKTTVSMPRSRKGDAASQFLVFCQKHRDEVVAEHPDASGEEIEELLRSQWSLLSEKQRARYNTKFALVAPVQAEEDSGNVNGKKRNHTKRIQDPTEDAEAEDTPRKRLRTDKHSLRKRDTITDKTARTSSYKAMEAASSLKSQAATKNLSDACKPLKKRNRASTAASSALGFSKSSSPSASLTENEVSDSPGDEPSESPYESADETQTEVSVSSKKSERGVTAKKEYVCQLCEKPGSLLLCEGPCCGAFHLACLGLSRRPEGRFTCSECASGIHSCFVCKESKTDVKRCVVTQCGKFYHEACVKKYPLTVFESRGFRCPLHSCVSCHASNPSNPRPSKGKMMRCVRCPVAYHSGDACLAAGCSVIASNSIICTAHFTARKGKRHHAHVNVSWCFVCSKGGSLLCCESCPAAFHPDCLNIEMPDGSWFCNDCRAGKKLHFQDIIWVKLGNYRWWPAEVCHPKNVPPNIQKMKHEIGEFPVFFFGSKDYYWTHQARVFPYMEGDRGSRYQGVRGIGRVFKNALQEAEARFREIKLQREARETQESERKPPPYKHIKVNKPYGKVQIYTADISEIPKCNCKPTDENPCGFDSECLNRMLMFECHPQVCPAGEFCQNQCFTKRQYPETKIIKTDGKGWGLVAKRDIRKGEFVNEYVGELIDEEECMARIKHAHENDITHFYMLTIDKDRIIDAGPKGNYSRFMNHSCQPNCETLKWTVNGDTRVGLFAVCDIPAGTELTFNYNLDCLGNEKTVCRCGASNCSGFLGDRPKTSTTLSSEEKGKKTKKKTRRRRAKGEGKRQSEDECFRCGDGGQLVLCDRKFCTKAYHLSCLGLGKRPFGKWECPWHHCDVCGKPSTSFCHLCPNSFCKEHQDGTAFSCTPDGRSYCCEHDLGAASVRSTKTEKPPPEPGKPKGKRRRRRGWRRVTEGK

**Q.** What does the source list for COc1cc2nc(N3CCCCC3)nc(NC3CCN(Cc4ccccc4)CC3)c2cc1OC?
**A.** inhibition [1]: 99.2%; inhibition [2]: 98%; IC50 [3]: > 5 µM

**Q.** With CC#CC(=O)NC12CC(NC3=C(Cl)C(=O)c4ncccc4C3=O)(C1)C2 as the compound, how does the IC50 [3] read?
**A.** 0.243 µM

**Q.** How did the IC50 [3] turn out when COc1cc2c(NC3CCN(C(C)C)CC3)nc(C#N)nc2cc1OCCCN1CCC(F)(F)C1 was run?
**A.** 0.038 µM

**Q.** Which IC50 [3] does the source give for COc1cc2c(NC3CCN(C(C)C)CC3)nc(C#N)nc2cc1OCCN1CCOCC1 here?
**A.** 0.044 µM

**Q.** Which results are given for COc1cc2ncnc(NC3CCN(Cc4ccccc4)CC3)c2cc1OC?
**A.** inhibition [1]: 82.4%; inhibition [2]: 27.4%; IC50 [3]: 1.45 µM

**Q.** With COc1cc2nc(C#N)nc(NC3CCN(C(C)=O)CC3)c2cc1OC as the compound, how does the IC50 [3] read?
**A.** 2.78 µM

**Q.** Which IC50 [3] does the source give for COCCOc1cc2nc(C#N)nc(NC3CCN(C(C)C)CC3)c2cc1OC here?
**A.** 0.029 µM

**Q.** How did the IC50 [3] turn out when COc1cc2nc(C#N)nc(NC3CCCC3)c2cc1OC was run?
**A.** > 5 µM

**Q.** For CC(C)N1CCC(Nc2nc(C#N)nc3ccccc23)CC1, which IC50 [3] is on record?
**A.** 0.377 µM

**Q.** COc1cc2nc(C#N)nc(NCC3CCN(C)CC3)c2cc1OC was tested. Which IC50 [3] did it give?
**A.** 2.43 µM

**Q.** With COc1cc2nc(C#N)nc(OC3CCN(C)CC3)c2cc1OC as the compound, how does the IC50 [3] read?
**A.** 2.52 µM

**Q.** For CNc1nc(NC2CCN(Cc3ccccc3)CC2)c2cc(OC)c(OC)cc2n1, which inhibition [1] is on record?
**A.** 99.4%

**Q.** What about the inhibition [2] of the same compound?
**A.** 99.5%

**Q.** And the IC50 [3]?
**A.** 1.51 µM

**Q.** COc1cc2nc(C#N)nc(NC3CCN(Cc4ccccc4)CC3)c2cc1OC was tested. Which inhibition [1] did it give?
**A.** 5.6%

**Q.** What about the inhibition [2] of the same compound?
**A.** 2.8%

**Q.** With COc1cc2nc(C#N)nc(NC3CCN(C4CCCCC4)CC3)c2cc1OC as the compound, how does the IC50 [3] read?
**A.** 1.2 µM

**Q.** For COc1cc2nc(CN)nc(NC3CCN(Cc4ccccc4)CC3)c2cc1OC, which inhibition [1] is on record?
**A.** 95.4%

**Q.** What about the inhibition [2] of the same compound?
**A.** 34.8%

**Q.** What about the IC50 [3] of the same compound?
**A.** 1.41 µM

**Q.** For COc1cc2c(NC3CCN(C(C)C)CC3)nc(C#N)nc2cc1OCCCN1CCC(F)(F)CC1, which IC50 [3] is on record?
**A.** 0.032 µM

**Q.** Which IC50 [3] does the source give for COc1cc2nc(C#N)nc(NC3CCNCC3)c2cc1OC here?
**A.** 1.41 µM

**Q.** Which IC50 [3] does the source give for COc1ccc2nc(C#N)nc(NC3CCN(C(C)C)CC3)c2c1 here?
**A.** 0.085 µM

**Q.** COc1cc2nc(-c3ccccc3)nc(NC3CCN(Cc4ccccc4)CC3)c2cc1OC was tested. Which inhibition [1] did it give?
**A.** 99.2%

**Q.** And the inhibition [2]?
**A.** 29.9%

**Q.** And the IC50 [3]?
**A.** > 5 µM

**Q.** How did the inhibition [1] turn out when COc1cc2nc(N3CCCN(C)CC3)nc(NC3CCN(Cc4ccccc4)CC3)c2cc1OC was run?
**A.** 98.8%

**Q.** What about the inhibition [2] of the same compound?
**A.** 98.3%

**Q.** And the IC50 [3]?
**A.** 1.73 µM

**Q.** Which results are given for COc1cc2nc(N)nc(NC3CCN(Cc4ccccc4)CC3)c2cc1OC?
**A.** inhibition [1]: 99.6%; inhibition [2]: 99.1%; IC50 [3]: 1.55 µM

**Q.** Which IC50 [3] does the source give for CCCN1CCC(Nc2nc(C#N)nc3cc(OC)c(OC)cc23)CC1 here?
**A.** 0.569 µM

**Q.** With COc1cc2nc(C#N)nc(N(C)C3CCN(C)CC3)c2cc1OC as the compound, how does the IC50 [3] read?
**A.** 3.76 µM

**Q.** With CCN1CCC(Nc2nc(C#N)nc3cc(OC)c(OC)cc23)CC1 as the compound, how does the IC50 [3] read?
**A.** 1.51 µM

**Q.** Which IC50 [3] does the source give for COc1cc2nc(C#N)nc(N3CCN(C)CC3)c2cc1OC here?
**A.** 4.3 µM

**Q.** COc1cc2nc(C#N)nc(NC3CCN(C(=O)OC(C)(C)C)CC3)c2cc1OC was tested. Which IC50 [3] did it give?
**A.** 3.33 µM

**Q.** For COc1cc2c(NC3CCN(C(C)C)CC3)nc(C#N)nc2cc1O, which IC50 [3] is on record?
**A.** 0.06 µM

**Q.** COc1cc2nc(C#N)nc(NC3CCOCC3)c2cc1OC was tested. Which IC50 [3] did it give?
**A.** 4.9 µM

**Q.** With COc1cc2c(NC3CCN(C(C)C)CC3)nc(C#N)nc2cc1OCc1ccccc1 as the compound, how does the IC50 [3] read?
**A.** 0.049 µM

**Q.** How did the IC50 [3] turn out when COc1ccc2c(NC3CCN(C(C)C)CC3)nc(C#N)nc2c1 was run?
**A.** 0.271 µM

**Q.** Which IC50 [3] does the source give for COc1cc2nc(C#N)nc(NC3CCCCC3)c2cc1OC here?
**A.** 4.57 µM

**Q.** How did the inhibition [1] turn out when COc1cc2nc(N3CCOCC3)nc(NC3CCN(Cc4ccccc4)CC3)c2cc1OC was run?
**A.** 98.5%

**Q.** What about the inhibition [2] of the same compound?
**A.** 98.7%

**Q.** What about the IC50 [3] of the same compound?
**A.** > 5 µM

**Q.** How did the IC50 [3] turn out when COc1cc2nc(C#N)nc(NC3CCN(C4CC4)CC3)c2cc1OC was run?
**A.** 0.045 µM

**Q.** How did the IC50 [3] turn out when COc1cc2nc(C#N)nc(Nc3ccc(N4CCN(C)CC4)cc3)c2cc1OC was run?
**A.** 3.15 µM

**Q.** How did the IC50 [3] turn out when COc1cc2nc(C#N)nc(NC3CCN(C)CC3)c2cc1OC was run?
**A.** 0.204 µM

**Q.** What does the source list for COc1cc2nc(N(C)C)nc(NC3CCN(Cc4ccccc4)CC3)c2cc1OC?
**A.** inhibition [1]: 99.1%; inhibition [2]: 99.6%; IC50 [3]: 1.51 µM
